Data taken from PMC10453993 (Emerging Microbes & Infections, 2023).
Where two headings read alike, the source gives them in different places.

Test system: SARS-CoV-2 VOCs
Experiment: microbe, parasite or virus in culture
Format: cell-based
[1] = Severe acute respiratory syndrome coronavirus 2, read-out: EC50, dsRNA staining
[2] = Severe acute respiratory syndrome coronavirus 2, read-out: EC50, nucleocapsid staining

SMILES	EC50 [1] [nM]	EC50 [2] [nM]	EC50 (Severe acute respiratory syndrome coronavirus 2, Calu-3) [nM]
CN(C)c1ccc(N(Cc2cc(Cl)cs2)C(=O)Cc2cncc3ccccc23)cc1 [C5, N-((4-chlorothiophen-2-yl)methyl)-N-(4-(dimethylamino)phenyl)-2-(isoquinolin-4-yl)acetamide]	200 to 700	100 to 300	
CN(C)c1ccc(N(Cc2cc(Cl)cs2)C(=O)Cc2cncc3cccc(O)c23)cc1 [C5a, N-((4-chlorothiophen-2-yl)methyl)-N-(4-(dimethylamino)phenyl)-2-(5-hydroxyisoquinolin-4-yl)acetamide]	28 to 95	30 to 69	
CC(C)(C)[C@H](NC(=O)C(F)(F)F)C(=O)N1C[C@H]2[C@@H]([C@H]1C(=O)N[C@H](C#N)C[C@@H]1CCNC1=O)C2(C)C [C7, Nirmatrelvir, reference compound]	400 to 700	300 to 400	1300
